What was measured:
[1] = test system: A375 human malignant melanoma; assay: Cell Proliferation Assay, A375; type: cell-based; conditions: A-375, A375 cell line, 72 h, CellTiter-Glo
Procedure: (§1) Compounds are tested in a cell proliferation assay using the following cell lines:
(§2) Both cell lines are maintained in DMEM/F12 (1:1) media (Gibco) supplemented with 10% FCS at 37° C. in a 5% CO2 humidified incubator.
(§3) Cells are seeded in 96-well plates at 2,000 cells/well and after 24 hours they are exposed to different concentrations of compounds in 0.83% DMSO. Cells are grown for a further 72 h, and an equal volume of CellTiter-Glo reagent (Promega) is added to each well. This lyses the cells and generates a luminescent signal proportional to the amount of ATP released (and therefore proportional to the number of cells in the well) that can be detected using a multi-well luminometer.
(§4) The EC50 is defined as the concentration at which a given compound achieves 50% inhibition of control. IC50 values are calculated using the XLfit software package (version 2.0.5).

[2] = molecular target: constitutively activated human mutant MEK1 (Homo sapiens, UniProt Q02750); assay: MEK Assay (MEK Activity Assay); type: biochemical; conditions: 15 nM MEK1, 50 μM ATP, GST-ERK1 substrate, 30 minutes, HTRF; read-out: IC50 in the MEK activity assay of Example 1
Chain of constitutively activated human mutant MEK1 (Q02750 whole entry S218D/S222D, form open): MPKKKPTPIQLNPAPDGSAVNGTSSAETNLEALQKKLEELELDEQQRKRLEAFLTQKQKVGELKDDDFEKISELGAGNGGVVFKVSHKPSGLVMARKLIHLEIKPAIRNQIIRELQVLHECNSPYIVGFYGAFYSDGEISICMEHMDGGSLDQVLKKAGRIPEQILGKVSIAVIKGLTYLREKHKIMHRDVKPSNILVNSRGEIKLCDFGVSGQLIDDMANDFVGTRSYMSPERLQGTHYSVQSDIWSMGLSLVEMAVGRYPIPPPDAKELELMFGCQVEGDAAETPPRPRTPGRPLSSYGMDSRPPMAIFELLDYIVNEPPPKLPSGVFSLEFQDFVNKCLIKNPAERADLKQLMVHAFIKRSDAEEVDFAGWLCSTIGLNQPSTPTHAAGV
Procedure: Constitutively activated human mutant MEK1 expressed in insect cells is used as source of enzymatic activity at a final concentration in the kinase assay of 15 nM.
The assay is carried out for 30 minutes in the presence of 50 μM ATP using recombinant GST-ERK1 produced in E. Coli as substrate. Phosphorylation of the substrate is detected and quantified using HTRF reagents supplied by Cisbio. These consist of an anti-GST antibody conjugated to allophycocyanin (XL665) and an anti-phospho (Thr202/Tyr204) ERK antibody conjugated to europium-cryptate. These are used at a final concentration of 4 μg/ml and 0.84 μg/ml respectively. The anti-phospho antibody recognises ERK1 dually phosphorylated on Thr202 and Tyr204. When both antibodies are bound to ERK1 (i.e. when the substrate is phosphorylated), energy transfer from the cryptate to the allophycocyanin occurs following excitation at 340 nm, resulting in fluorescence being emitted that is proportional to the amount of phosphorylated substrate produced. Fluorescence is detected using a multiwell fluorimeter.
Compounds are diluted in DMSO prior to addition to assay buffer and the final DMSO concentration in the assay is 1%.
The IC50 is defined as the concentration at which a given compound achieves 50% inhibition of control. IC50 values are calculated using the XLfit software package (version 2.0.5).

[3] = test system: phospho-ERK in HCT116 cell line; assay: Phospho-ERK Cell-Based Assay, HCT116; conditions: Homo sapiens, HCT-116, exposure 2 h or 24 h
Procedure: Compounds are tested in a cell-based phospho-ERK ELISA using the following cell lines:
as §2
Cells are seeded in 96-well plates at 2,000 cells/well and after 24 h they are exposed to different concentrations of compounds in 0.83% DMSO. Cells are grown for a further 2 h or 24 h, fixed with formaldehyde (2% final) and permeabilised with methanol. Following blocking with TBST-3% BSA, fixed cells are incubated with primary antibody (anti-phospho ERK from rabbit) over-night at 4° C. Cells are incubated with Propidium Iodide (DNA fluorescent dye) and detection of cellular p-ERK is performed using an anti-rabbit secondary antibody conjugated to the fluorescent Alexa Fluor 488 dye (Molecular probes). The fluorescence is analysed using the Acumen Explorer (TTP Labtech), a laser-scanning microplate cytometer, and the Alexa Fluor 488 signal is normalised to the PI signal (proportional to cell number).
The EC50 is defined as the concentration at which a given compound achieves a signal half way between the baseline and the maximum response. EC50 values are calculated using the XLfit software package (version 2.0.5).

[4] = test system: HCT116 human colorectal carcinoma; assay: Cell Proliferation Assay, HCT116; type: cell-based; conditions: HCT-116, HCT116 cell line, 72 h, CellTiter-Glo
Procedure: as §1, §2, §3, §4

EC50 [1]: < 500 nM | IC50 [2]: < 100 nM | EC50 [3]: < 500 nM | EC50 [4]: < 500 nM
Structure (SMILES): O=C1NCc2cc(C(=O)NOCCO)c(Nc3ccc(I)cc3F)cc21 [Example 5, 6-(2-Fluoro-4-iodo-phenylamino)-1-oxo-2,3-dihydro-1H-isoindole-5-carboxylic acid (2-hydroxy-ethoxy)-amide]
